Assay results as given in the supplement of paper PMC10307832.

Legend:
Test in all cases: relative viability (nuclei count vs DMSO), 5 days (fraction); higher = more cells survive
NCI-H520 = test system: NCI-H520
Outline: (§1)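 Nuclei were stained with Hoechst during a one-step fixation (final 0.05% Triton X-100, 1% formaldehyde, 1 ug/ml Hoechst) carried out 5 days after dosing, then counted on 4× images. The cells, lung cancer lines in 1536-well plates, had been dosed by pin tool the day after seeding with one drug alone or a fixed anchor-drug dose plus five library-drug doses (not always all listed) in √10 steps. Relative viability is the nuclei count in treated wells divided by that in vehicle wells, and each value is the median of duplicate plates.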

LK-2 = test system: LK-2
Outline: as §1

NCI-H460 = test system: NCI-H460
Outline: as §1

A-427 = test system: A-427
Outline: as §1

ChaGo-K-1 = test system: ChaGo-K-1
Outline: as §1

BEN = test system: BEN
Outline: as §1

NCI-H2228 = test system: NCI-H2228
Outline: as §1

NCI-H358 = test system: NCI-H358
Outline: as §1

NCI-H2085 = test system: NCI-H2085
Outline: as §1

SW 1573 = test system: SW 1573
Outline: as §1

NCI-H1650 = test system: NCI-H1650
Outline: as §1

NCI-H727 = test system: NCI-H727
Outline: as §1

NCI-H2347 = test system: NCI-H2347
Outline: as §1

NCI-H322M = test system: NCI-H322M
Outline: as §1

EKVX = test system: EKVX
Outline: as §1

NCI-H3122 = test system: NCI-H3122
Outline: as §1

NCI-H596 = test system: NCI-H596
Outline: as §1

NCI-H1755 = test system: NCI-H1755
Outline: as §1

NCI-H650 = test system: NCI-H650
Outline: as §1

NCI-H1563 = test system: NCI-H1563
Outline: as §1

NCI-H838 = test system: NCI-H838
Outline: as §1

COCC1(CO)C(=O)C2CCN1CC2 (stereo not drawn) [PRIMA-1MET] + CS(=O)(=O)N1CCN(Cc2cc3nc(-c4cccc5[nH]ncc45)nc(N4CCOCC4)c3s2)CC1 [Pictilisib] (partner 1 µM)
relative viability (NCI-H520; first compound 0.2 µM): 0.345 | relative viability (NCI-H520; first compound 0.6325 µM): 0.285 | relative viability (NCI-H520; first compound 6.325 µM): 0.368 | relative viability (NCI-H520; first compound 20 µM): 0.13 | relative viability (LK-2; first compound 0.2 µM): 0.652 | relative viability (LK-2; first compound 0.6325 µM): 0.57 | relative viability (LK-2; first compound 2 µM): 0.359 | relative viability (LK-2; first compound 6.325 µM): 0.364 | relative viability (LK-2; first compound 20 µM): 0.16 | relative viability (NCI-H460; first compound 0.2 µM): 0.31 | relative viability (NCI-H460; first compound 0.6325 µM): 0.359 | relative viability (NCI-H460; first compound 2 µM): 0.23 | relative viability (NCI-H460; first compound 6.325 µM): 0.357 | relative viability (NCI-H460; first compound 20 µM): 0.197 | relative viability (A-427; first compound 0.2 µM): 0.255 | relative viability (A-427; first compound 0.6325 µM): 0.53 | relative viability (A-427; first compound 2 µM): 0.528 | relative viability (A-427; first compound 6.325 µM): 0.378 | relative viability (A-427; first compound 20 µM): 0.622 | relative viability (ChaGo-K-1; first compound 0.2 µM): 0.732 | relative viability (ChaGo-K-1; first compound 0.6325 µM): 0.468 | relative viability (ChaGo-K-1; first compound 2 µM): 0.84 | relative viability (ChaGo-K-1; first compound 6.325 µM): 0.752 | relative viability (ChaGo-K-1; first compound 20 µM): 0.328 | relative viability (BEN; first compound 0.2 µM): 0.608 | relative viability (BEN; first compound 0.6325 µM): 0.514 | relative viability (BEN; first compound 6.325 µM): 0.521 | relative viability (BEN; first compound 20 µM): 0.464 | relative viability (NCI-H2228; first compound 0.2 µM): 0.421 | relative viability (NCI-H2228; first compound 0.6325 µM): 0.343 | relative viability (NCI-H2228; first compound 2 µM): 0.358 | relative viability (NCI-H2228; first compound 6.325 µM): 0.19 | relative viability (NCI-H2228; first compound 20 µM): 0.0615 | relative viability (NCI-H358; first compound 0.2 µM): 0.392 | relative viability (NCI-H358; first compound 0.6325 µM): 0.318 | relative viability (NCI-H358; first compound 6.325 µM): 0.319 | relative viability (NCI-H358; first compound 20 µM): 0.0332 | relative viability (NCI-H2085; first compound 0.2 µM): 0.44 | relative viability (NCI-H2085; first compound 0.6325 µM): 0.419 | relative viability (NCI-H2085; first compound 2 µM): 0.33 | relative viability (NCI-H2085; first compound 6.325 µM): 0.4 | relative viability (NCI-H2085; first compound 20 µM): 0.359 | relative viability (SW 1573; first compound 0.2 µM): 0.463 | relative viability (SW 1573; first compound 0.6325 µM): 0.409 | relative viability (SW 1573; first compound 2 µM): 0.45 | relative viability (SW 1573; first compound 6.325 µM): 0.0446 | relative viability (SW 1573; first compound 20 µM): 0.0283 | relative viability (NCI-H1650; first compound 0.2 µM): 0.618 | relative viability (NCI-H1650; first compound 0.6325 µM): 0.483 | relative viability (NCI-H1650; first compound 2 µM): 0.311 | relative viability (NCI-H1650; first compound 6.325 µM): 0.527 | relative viability (NCI-H1650; first compound 20 µM): 0.209 | relative viability (NCI-H727; first compound 0.2 µM): 0.258 | relative viability (NCI-H727; first compound 0.6325 µM): 0.341 | relative viability (NCI-H727; first compound 2 µM): 0.241 | relative viability (NCI-H727; first compound 6.325 µM): 0.178 | relative viability (NCI-H727; first compound 20 µM): 0.109 | relative viability (NCI-H2347; first compound 0.2 µM): 0.416 | relative viability (NCI-H2347; first compound 0.6325 µM): 0.741 | relative viability (NCI-H2347; first compound 6.325 µM): 0.675 | relative viability (NCI-H2347; first compound 20 µM): 0.561 | relative viability (NCI-H322M; first compound 0.2 µM): 0.543 | relative viability (NCI-H322M; first compound 6.325 µM): 0.492 | relative viability (NCI-H322M; first compound 20 µM): 0.451 | relative viability (EKVX; first compound 0.2 µM): 0.475 | relative viability (EKVX; first compound 0.6325 µM): 0.458 | relative viability (EKVX; first compound 2 µM): 0.328 | relative viability (EKVX; first compound 6.325 µM): 0.489 | relative viability (EKVX; first compound 20 µM): 0.356 | relative viability (NCI-H3122; first compound 0.2 µM): 0.288 | relative viability (NCI-H3122; first compound 0.6325 µM): 0.647 | relative viability (NCI-H3122; first compound 2 µM): 0.659 | relative viability (NCI-H3122; first compound 6.325 µM): 0.429 | relative viability (NCI-H3122; first compound 20 µM): 0.52 | relative viability (NCI-H596; first compound 0.2 µM): 0.406 | relative viability (NCI-H596; first compound 0.6325 µM): 0.389 | relative viability (NCI-H596; first compound 2 µM): 0.335 | relative viability (NCI-H596; first compound 6.325 µM): 0.379 | relative viability (NCI-H596; first compound 20 µM): 0.368 | relative viability (NCI-H1755; first compound 0.2 µM): 0.187 | relative viability (NCI-H1755; first compound 0.6325 µM): 0.421 | relative viability (NCI-H1755; first compound 2 µM): 0.206 | relative viability (NCI-H1755; first compound 6.325 µM): 0.391 | relative viability (NCI-H1755; first compound 20 µM): 0.3 | relative viability (NCI-H650; first compound 0.2 µM): 1.14 | relative viability (NCI-H650; first compound 2 µM): 0.867 | relative viability (NCI-H650; first compound 6.325 µM): 1.06 | relative viability (NCI-H650; first compound 20 µM): 0.111 | relative viability (NCI-H1563; first compound 0.2 µM): 0.645 | relative viability (NCI-H1563; first compound 0.6325 µM): 0.696 | relative viability (NCI-H1563; first compound 2 µM): 0.632 | relative viability (NCI-H1563; first compound 6.325 µM): 0.629 | relative viability (NCI-H1563; first compound 20 µM): 0.345 | relative viability (NCI-H838; first compound 0.2 µM): 0.46 | relative viability (NCI-H838; first compound 0.6325 µM): 0.448 | relative viability (NCI-H838; first compound 2 µM): 0.355 | relative viability (NCI-H838; first compound 6.325 µM): 0.589 | relative viability (NCI-H838; first compound 20 µM): 0.632
